Laboratory results published in patent publication US20250188075A1, “SUBSTITUTED HETEROCYCLIC CSNK1 INHIBITORS” (The Broad Institute, Inc., priority 2022, published 2025).

Tests used:
[1] = Solubility assay (thermodynamic solubility); assay type: physicochemical; conditions: aqueous buffer, 24 h
Experimental: Solubility of solid compound in aqueous buffer was determined by an equilibrium shake flask method. A saturated solution of drug in solvent (˜2 mg/ml solvent) was prepared and the solution was mixed for 24 h to ensure that equilibrium has been reached. The solution was centrifuged to remove the insoluble fraction and the concentration of the compound in solution was determined by HPLC-UV using a standard calibration curve (Kerns, E. H. et al., Solubility Methods in: Drug-like Properties: Concepts, Structure Design and Methods, p 276-286. Burlington, MA: Academic Press 2008).

[2] = target: human Ether-a-go-go-Related Gene (hERG) potassium channel (Homo sapiens (Human), UniProt Q12809); test: hERG inhibition assay, automated voltage clamp; assay type: cell-based; conditions: HEK293 cells stably expressing hERG alpha subunit
Chain of human Ether-a-go-go-Related Gene (hERG) potassium channel (Q12809 whole entry): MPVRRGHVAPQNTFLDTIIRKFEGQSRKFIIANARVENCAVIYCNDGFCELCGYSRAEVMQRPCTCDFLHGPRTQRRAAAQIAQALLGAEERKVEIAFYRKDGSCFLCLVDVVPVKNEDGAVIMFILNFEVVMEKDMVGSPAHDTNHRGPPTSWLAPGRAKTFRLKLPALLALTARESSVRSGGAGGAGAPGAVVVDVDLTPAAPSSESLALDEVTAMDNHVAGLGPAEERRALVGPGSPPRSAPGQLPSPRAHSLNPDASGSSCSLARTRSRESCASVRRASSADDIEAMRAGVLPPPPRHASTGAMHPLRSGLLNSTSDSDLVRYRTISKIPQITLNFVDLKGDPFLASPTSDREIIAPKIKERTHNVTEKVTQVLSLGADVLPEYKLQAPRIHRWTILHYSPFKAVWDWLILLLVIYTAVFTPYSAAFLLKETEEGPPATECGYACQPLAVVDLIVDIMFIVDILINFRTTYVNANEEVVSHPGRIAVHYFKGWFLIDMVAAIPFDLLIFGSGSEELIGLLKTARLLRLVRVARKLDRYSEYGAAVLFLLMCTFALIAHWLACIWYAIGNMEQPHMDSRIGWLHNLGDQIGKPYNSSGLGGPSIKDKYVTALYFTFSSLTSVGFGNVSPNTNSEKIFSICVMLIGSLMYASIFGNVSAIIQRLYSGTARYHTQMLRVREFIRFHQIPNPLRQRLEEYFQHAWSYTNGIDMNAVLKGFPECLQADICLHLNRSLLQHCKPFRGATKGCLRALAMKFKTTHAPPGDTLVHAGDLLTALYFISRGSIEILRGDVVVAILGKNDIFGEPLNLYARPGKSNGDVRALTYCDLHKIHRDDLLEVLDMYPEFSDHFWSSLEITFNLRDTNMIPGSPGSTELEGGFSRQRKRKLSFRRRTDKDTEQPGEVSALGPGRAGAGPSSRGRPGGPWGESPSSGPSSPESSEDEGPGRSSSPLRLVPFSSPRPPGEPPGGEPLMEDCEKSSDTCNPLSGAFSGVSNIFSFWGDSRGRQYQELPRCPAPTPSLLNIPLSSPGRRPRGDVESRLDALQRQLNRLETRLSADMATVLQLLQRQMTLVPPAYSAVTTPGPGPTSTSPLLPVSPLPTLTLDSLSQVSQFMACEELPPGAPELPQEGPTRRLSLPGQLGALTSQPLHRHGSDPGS
Experimental: Following harvest, cells were transferred to the cell reservoir of a 384 channel automated patch clamp device and stored there at 20° C. until usage.
Upon start of the automated voltage clamp procedure, hERG cells were transferred to a 384 well patch clamp chip (pipette resistance of ˜[…] (2) prefilled with external solution (containing in mM: 143 NaCl, 4 KCl, 2 CaCl2), 1 MgCl2, 5 glucose, 10 HEPES; pH 7.4 (NaOH)). Underpressure was applied underneath the glass bottom of the patch clamp chip to position the hERG cells on the recording sites in the glass bottom of the chip. Following successful cell catch, underpressure was stopped and a seal enhancing solution (containing in mM: 78 NaCl, 60 NMDG, 4 KCl, 10 CaCl2), 1 MgCl2, 5 glucose, 10 HEPES; pH 7.4 (HCl)) was added to the hERG cells to facilitate the formation of stable seals between the membranes of the hERG cells and the glass next to the recording sites. Then, hERG cells were washed several times with wash solution (containing in mM: 87 NaCl, 60 NMDG, 4 KCl, 2 CaCl2), 1 MgCl2, 5 glucose, 10 HEPES; pH 7.4 (HCl)) to remove excess seal enhancing solution. In the meantime, the membrane parts of the hERG cells covering the recording sites were exposed to internal solution (containing in mM: 10 NaCl, 123 KF, 10 EGTA, 10 HEPES; pH 7.2 (KOH)) supplemented with 5-20 μM Escin, and the perforated patch configuration was established. Next, the holding potential was stepwise adjusted to −80 mV, capacitance was compensated, and a series of defined voltage commands was initiated to trigger the hERG current response from the hERG cells (−80 mV for 200 ms, +20 mV for 1000 ms, −40 mV for 500 ms; repeated at a frequency of 0.1 Hz). To determine whether the test item inhibits hERG, different solutions were sequentially applied to the hERG cells: First, a negative control (i.e. wash solution supplemented with 0.3% DMSO and 0.01% HSA) was applied for at least 3 min to investigate the basic electrophysiological properties of the hERG cells as well as define their standard current response. Next, a solution containing the test item at a final concentration of (0.1, 1, or 10) μM was applied for 10 min to measure eventual inhibitory effects of the test item on the hERG current (—the test item solution was produced from a 10 mM DMSO stock by using an automated pipetting device and sequential dilution). Finally, a positive control (i.e. wash solution supplemented with 0.3% DMSO, 0.01% HSA, and 10 μM quinidine) was added to the cells for ˜3 min to block the hERG current and, thereby, define the maximum inhibition. For data analysis, experimental results were processed using the automated patch clamp device-specific software as well as a custom-made software, and TIBCO Spotfire. For each successful recording, hERG tail current amplitudes were averaged from three consecutive current responses at the end of the negative control phase, test item phase, and positive control phase, respectively. Resulting mean hERG tail current amplitudes were normalized to the mean hERG tail current amplitude at the end of the negative control phase with nominal 0% inhibition as well as the hERG tail current amplitude at the end of the positive control phase with nominal 100% inhibition. Then, the effect of the test item was calculated as a percentage inhibition value at the test item concentration applied. Finally, percentage inhibition values from all successful recordings at a particular test item concentration were averaged and combined to construct a standard sigmoidal dose response curve, determine the half maximal inhibitory concentration (IC50) of the test item as well as extrapolate its IC20.

SMILES: O=C(Cc1ccc(F)cc1)Nc1cc(-c2[nH]c3ccc(F)nc3c2-c2ccccn2)ccn1 [Example C4, reference compound]
- Thermodynamic Solubility [mg/l] (mean) [1]: 2.35 mg/L
- IC50 [2]: 1.16 µM
